The values that follow are results of earlier work, collected in patent US20090233891A1, “Pharmaceutical lotion comprising fluticasone propionate” (GLENMARK GENERICS LTD., priority 2008, published 2009).

Regarding `CCC(=O)O[C@]1(C(=O)SCF)[C@H](C)C[C@H]2[C@@H]3C[C@H](F)C4=CC(=O)C=C[C@]4(C)[C@@]3(F)[C@@H](O)C[C@@]21C` [Fluticasone propionate, S-(fluoromethyl) 6a, 9-difluoro-11β, 17-dihydroxy-16a-methyl-3-oxoandrosta-1,4-diene-17β-carbothioate, 17-propionate], where the note is “95% ethanol”, the “solubility in 95% ethanol” value is “slightly soluble”. The “solubility in dimethyl sulfoxide” value (dimethyl sulfoxide) was “freely soluble”. The solubility in dimethylformamide entry (dimethylformamide) is listed as “freely soluble”. Besides, where the note is “methanol”, the solubility in methanol entry is on record as “slightly soluble”. Besides, the solubility in water result (water) is reported as “practically insoluble”.
